Assay results reported in patent publication US4201774A, “Novel aminoglycoside derivatives” (Shionogi & Co., Ltd., priority 1977, dated 1980).
Converted amounts (≈) assume the structure as drawn.

Experiments:
Seratia marcescens MA-81 = experiment: MIC, Seratia marcescens MA-81*; assay type: cell-based; conditions: Seratia marcescens MA-81, tobramycin resistant strain; read-out: minimum inhibitory concentration (MIC)
[1] = test system: Escherichia coli W-677/JR 214; experiment: MIC, Escherichia coli W-677/JR 214*; conditions: W677/JR214, read-out: minimum inhibitory concentration (MIC)
Proteus inconstans In-43 = experiment: MIC, Proteus inconstans In-43*; assay type: cell-based; conditions: Providencia alcalifaciens, IN43; Proteus inconstans In-43, tobramycin resistant strain; read-out: minimum inhibitory concentration (MIC)
[2] = test system: Staphylococus epidermidis TB-302; experiment: MIC, Staphylococus epidermidis TB-302; assay type: cell-based; conditions: read-out: minimum inhibitory concentration (MIC)
[3] = test system: Staphylococcus aureus S-25; experiment: MIC, Staphylococcus aureus S-25*; conditions: S25, read-out: minimum inhibitory concentration (MIC)
[4] = test system: Enterobacter cloacae Cl-126; experiment: MIC, Enterobacter cloacae Cl-126*; conditions: CL126, read-out: minimum inhibitory concentration (MIC)
Escherichia coli EC-147 = experiment: MIC, Escherichia coli EC-147*; conditions: EC147, read-out: minimum inhibitory concentration (MIC)
[5] = test system: Escherichia coli W-677/JR 225; experiment: MIC, Escherichia coli W-677/JR 225*; conditions: W677/JR225, read-out: minimum inhibitory concentration (MIC)
[6] = test system: Escherichia coli W-677/JR-762; experiment: MIC, Escherichia coli W-677/JR-762*; conditions: W677/JR762, read-out: minimum inhibitory concentration (MIC)
Escherichia coli EC-148 = experiment: MIC, Escherichia coli EC-148*; conditions: EC148, read-out: minimum inhibitory concentration (MIC)
[7] = test system: Klebsiella pneumoniae Kl-187; experiment: MIC, Klebsiella pneumoniae Kl-187*; conditions: KL187, read-out: minimum inhibitory concentration (MIC)
[8] = test system: Citrobactor freundii Ct-52; experiment: MIC, Citrobactor freundii Ct-52*; conditions: read-out: minimum inhibitory concentration (MIC)
[9] = test system: Pseudomonas aeruginosa PP-6; experiment: MIC, Pseudomonas aeruginosa PP-6*; conditions: PP6, read-out: minimum inhibitory concentration (MIC)

Q: How did the MIC (Seratia marcescens MA-81) turn out when `NC[C@H]1O[C@H](O[C@H]2[C@H](O)[C@@H](O[C@H]3O[C@H](CO)[C@@H](O)[C@H](N)[C@H]3O)[C@H](NCC3(O)CNC3)C[C@@H]2N)[C@H](N)C[C@@H]1O` [Test compound (1), 1-N-[(3-hydroxyazetidin-3-yl)methyl]tobramycin] was run?
A: 12.5 µg/mL (≈ 22.6 µM)

Q: And the MIC [1]?
A: 1.56 µg/mL (≈ 2.82 µM)

Q: What about the MIC (Proteus inconstans In-43) of the same compound?
A: 6.25 µg/mL (≈ 11.3 µM)

Q: What about the MIC [2] of the same compound?
A: 3.13 µg/mL (≈ 5.66 µM)

Q: And the MIC [3]?
A: 50 µg/mL (≈ 90.5 µM)

Q: What about the MIC [4] of the same compound?
A: 0.78 µg/mL (≈ 1.41 µM)

Q: And the MIC (Escherichia coli EC-147)?
A: 3.13 µg/mL (≈ 5.66 µM)

Q: What about the MIC [5] of the same compound?
A: 1.56 µg/mL (≈ 2.82 µM)

Q: And the MIC [6]?
A: 3.13 µg/mL (≈ 5.66 µM)

Q: And the MIC (Escherichia coli EC-148)?
A: 3.13 µg/mL (≈ 5.66 µM)

Q: And the MIC [7]?
A: 0.78 µg/mL (≈ 1.41 µM)

Q: And the MIC [8]?
A: 0.78 µg/mL (≈ 1.41 µM)

Q: And the MIC [9]?
A: 0.78 µg/mL (≈ 1.41 µM)

Q: With `NC[C@H]1O[C@H](O[C@H]2[C@H](O)[C@@H](O[C@H]3O[C@H](CO)[C@@H](O)[C@H](N)[C@H]3O)[C@H](N)C[C@@H]2N)[C@H](N)C[C@@H]1O` [Test compound (5), tobramycin, reference compound] as the compound, how does the MIC (Seratia marcescens MA-81) read?
A: > 100 µg/mL

Q: And the MIC [1]?
A: 100 µg/mL (≈ 214 µM)

Q: What about the MIC (Proteus inconstans In-43) of the same compound?
A: 6.25 µg/mL (≈ 13.4 µM)

Q: What about the MIC [2] of the same compound?
A: 3.13 µg/mL (≈ 6.69 µM)

Q: And the MIC [3]?
A: 100 µg/mL (≈ 214 µM)

Q: And the MIC [4]?
A: 25 µg/mL (≈ 53.5 µM)

Q: What about the MIC (Escherichia coli EC-147) of the same compound?
A: 50 µg/mL (≈ 107 µM)

Q: And the MIC [5]?
A: 50 µg/mL (≈ 107 µM)

Q: And the MIC [6]?
A: > 100 µg/mL

Q: What about the MIC (Escherichia coli EC-148) of the same compound?
A: 100 µg/mL (≈ 214 µM)

Q: And the MIC [7]?
A: 25 µg/mL (≈ 53.5 µM)

Q: What about the MIC [8] of the same compound?
A: 25 µg/mL (≈ 53.5 µM)

Q: What about the MIC [9] of the same compound?
A: 50 µg/mL (≈ 107 µM)

Q: How did the MIC (Seratia marcescens MA-81) turn out when `NC[C@H]1O[C@H](O[C@H]2[C@H](O)[C@@H](O[C@H]3O[C@H](CO)[C@@H](O)[C@H](N)[C@H]3O)[C@H](NCC3(O)CCNC3)C[C@@H]2N)[C@H](N)C[C@@H]1O` (some centres unmarked) [Test compound (2), 1-N-[(3-hydroxypyrrolidin-3-yl)methyl]tobramycin] was run?
A: 12.5 µg/mL (≈ 22.1 µM)

Q: And the MIC [1]?
A: 1.56 µg/mL (≈ 2.75 µM)

Q: What about the MIC (Proteus inconstans In-43) of the same compound?
A: 12.5 µg/mL (≈ 22.1 µM)

Q: And the MIC [2]?
A: 1.56 µg/mL (≈ 2.75 µM)

Q: What about the MIC [3] of the same compound?
A: 25 µg/mL (≈ 44.1 µM)

Q: What about the MIC [4] of the same compound?
A: 0.78 µg/mL (≈ 1.38 µM)

Q: What about the MIC (Escherichia coli EC-147) of the same compound?
A: 3.13 µg/mL (≈ 5.52 µM)

Q: What about the MIC [5] of the same compound?
A: 0.78 µg/mL (≈ 1.38 µM)

Q: And the MIC [6]?
A: 3.13 µg/mL (≈ 5.52 µM)

Q: And the MIC (Escherichia coli EC-148)?
A: 3.13 µg/mL (≈ 5.52 µM)

Q: And the MIC [7]?
A: 0.39 µg/mL (≈ 0.688 µM)

Q: And the MIC [8]?
A: 0.78 µg/mL (≈ 1.38 µM)

Q: And the MIC [9]?
A: 0.78 µg/mL (≈ 1.38 µM)

Q: `NC[C@H]1O[C@H](O[C@H]2[C@H](O)[C@@H](O[C@H]3O[C@H](CO)[C@@H](O)[C@H](N)[C@H]3O)[C@H](NCC3(O)CCNC3)C[C@@H]2N)[C@H](O)[C@@H](O)[C@@H]1O` (some centres unmarked) [Test compound (4), 1-N-[(3-hydroxypyrrolidin-3-yl)methyl]kanamycin A] was tested. Which MIC (Seratia marcescens MA-81) did it give?
A: 12.5 µg/mL (≈ 21.4 µM)

Q: And the MIC [1]?
A: 3.13 µg/mL (≈ 5.36 µM)

Q: What about the MIC (Proteus inconstans In-43) of the same compound?
A: 3.13 µg/mL (≈ 5.36 µM)

Q: And the MIC [2]?
A: 1.56 µg/mL (≈ 2.67 µM)

Q: And the MIC [3]?
A: 12.5 µg/mL (≈ 21.4 µM)

Q: And the MIC [4]?
A: 1.56 µg/mL (≈ 2.67 µM)

Q: What about the MIC (Escherichia coli EC-147) of the same compound?
A: 6.25 µg/mL (≈ 10.7 µM)

Q: And the MIC [5]?
A: 3.13 µg/mL (≈ 5.36 µM)

Q: What about the MIC [6] of the same compound?
A: 12.5 µg/mL (≈ 21.4 µM)

Q: And the MIC (Escherichia coli EC-148)?
A: 6.25 µg/mL (≈ 10.7 µM)

Q: What about the MIC [7] of the same compound?
A: 1.56 µg/mL (≈ 2.67 µM)

Q: And the MIC [8]?
A: 1.56 µg/mL (≈ 2.67 µM)

Q: And the MIC [9]?
A: 3.13 µg/mL (≈ 5.36 µM)

Q: How did the MIC (Seratia marcescens MA-81) turn out when `NC[C@H]1O[C@H](O[C@H]2[C@H](O)[C@@H](O[C@H]3O[C@H](CO)[C@@H](O)[C@H](N)[C@H]3O)[C@H](NCC3(O)CNC3)C[C@@H]2N)[C@H](O)[C@@H](O)[C@@H]1O` [Test compound (3), 1-N-[(3-hydroxyazetidin-3-yl)methyl]kanamycin A] was run?
A: 12.5 µg/mL (≈ 21.9 µM)

Q: And the MIC [1]?
A: 6.25 µg/mL (≈ 11 µM)

Q: And the MIC (Proteus inconstans In-43)?
A: 3.13 µg/mL (≈ 5.49 µM)

Q: What about the MIC [2] of the same compound?
A: 3.13 µg/mL (≈ 5.49 µM)

Q: And the MIC [3]?
A: 25 µg/mL (≈ 43.9 µM)

Q: And the MIC [4]?
A: 1.56 µg/mL (≈ 2.74 µM)

Q: And the MIC (Escherichia coli EC-147)?
A: 6.25 µg/mL (≈ 11 µM)

Q: And the MIC [5]?
A: 3.13 µg/mL (≈ 5.49 µM)

Q: And the MIC [6]?
A: 12.5 µg/mL (≈ 21.9 µM)

Q: And the MIC (Escherichia coli EC-148)?
A: 12.5 µg/mL (≈ 21.9 µM)

Q: And the MIC [7]?
A: 1.56 µg/mL (≈ 2.74 µM)

Q: What about the MIC [8] of the same compound?
A: 3.13 µg/mL (≈ 5.49 µM)

Q: And the MIC [9]?
A: 3.13 µg/mL (≈ 5.49 µM)
